Assays:
[1] = test system: psoriasis; assay: Spray of 10 mM NH4Cl solution on psoriasis sites of patient A; type: in vivo, human; conditions: 10 mM NH4Cl spray once every 2 days
Excerpt: Photos were taken before and after treatments in indicated time points. FIGS. 1, 2, 3, 4 and 5 illustrated the results of the above-identified protocol used in this study.

[2] = test system: furuncles; assay: Topical NH4Cl in skin moisture lotion to treat furuncles; type: in vivo, human; conditions: 10 mM in skin moisture lotion, 3 times a day, after 2-3 days
[3] = test system: pain of body; assay: Topical NH4Cl in skin moisture lotion to reduce pain of body; type: in vivo, human; conditions: 10 mM in skin moisture lotion, once a day, after 2-3 days
[4] = test system: subcutaneous masses; assay: Topical NH4Cl in skin moisture lotion to treat subcutaneous masses; type: in vivo, human; conditions: 10 mM in skin moisture lotion, once a day, after 2-3 days
[5] = test system: acnes or furuncles; assay: Topical NH4Cl lotion on face to prevent acnes or furuncles; type: in vivo, human; conditions: NH4+ 10 mM in skin moisture lotion, topical on face once a week
[6] = test system: dermatological inflammatory diseases and other inflammatory diseases or syndrome; conditions: 10 mM, topical or gargle or spray administration

| SMILES | psoriasis on one hand ([1]; 2 months, patient A (FIG. 3)) | psoriasis on both elbows ([1]; 3 months, patient A (FIG. 2)) | psoriasis on the back of the body ([1]; 3 months, patient A (FIG. 4)) | psoriasis on both hands ([1]; 3 months, patient A with psoriasis for 3 years (FIG. 1)) | appearance of psoriasis on feet and both knees ([1]; 4 months, patient A (FIG. 5)) | furuncles (pain, red, nodule) [2] | pain of body [3] | subcutaneous masses [4] | prevention of acnes or furuncles [5] | effects for dermatological inflammatory diseases (eczema, acnes, psoriasis, furuncles) and other inflammatory diseases or syndrome [6] |
| --- | --- | --- | --- | --- | --- | --- | --- | --- | --- | --- |
| Cl.N [NH4Cl, ammonium chloride] | cures psoriasis | cures psoriasis | cure psoriasis | cures psoriasis | improve appearance of psoriasis | furuncles were cured | completed stopped or significantly reduced | masses less than 1 cm would be disappeared | could prevent acnes or furuncles | excellent effects |
| CC(=O)O.N [ammonium acetate] |  |  |  |  |  |  |  |  |  | excellent effects |
| N.N.O=S(=O)(O)O [ammonium sulfate] |  |  |  |  |  |  |  |  |  | excellent effects |

Source: US20150072026A1, “Anti-inflammatory ion and uses thereof” (Yunyuan Li, priority 2013, published 2015)
